Results as given in PubChem BioAssay AID1963841 (Molecular Pharmacology Branch, DTP, NCI, 2024).
“And” between values parts separate entries of the source, which are not always exact repeats. Identical values can stand only once.

Test system: 439559-082-T-J2-PDC spheroid viability
Assay: Anticancer human tumor 439559-082-T-J2-PDC patient-derived colon adenocarcinoma cell line growth inhibition [POLQ]
Settings: spheroids with HUVEC and MSC; for viability, T/C: stronger effect = lower value
Procedure, shortened: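 Three-cell-type spheroids modelling solid tumor plus stroma served as the readout system; POL inhibitors were tested individually and in combination, concentration ranges set by clinical Cmax where known.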
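Further: spheroids exposed to compounds for seven days before readout.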
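Wherever viability, T/C is given: 100% = DMSO vehicle control viability.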

SMILES: O=c1[nH]cc(F)c(=O)[nH]1 + Cc1cccc(N(C)C(=O)C2C(O)CCN2c2nc(C)cc(C(F)(F)F)c2C#N)c1
- IC50 (curve of first compound, second compound 0.0316 µM): > 10 µM
- IC50 (curve of first compound, second compound 0.1 µM): > 10 µM
- IC50 (curve of first compound, second compound 0.316 µM): > 10 µM
- IC50 (curve of first compound, second compound 1 µM): > 10 µM
- IC50 (curve of first compound, second compound 3.16 µM): > 10 µM
- IC50 (curve of first compound, second compound 10 µM): > 10 µM
- viability, T/C (second compound 0.0316 µM, first compound 0.0316 µM): 102%
- viability, T/C (second compound 0.0316 µM, first compound 0.1 µM): 93.3%
- viability, T/C (second compound 0.0316 µM, first compound 0.316 µM): 82.2%
- viability, T/C (second compound 0.0316 µM, first compound 1 µM): 78.3%
- viability, T/C (second compound 0.0316 µM, first compound 3.16 µM): 71.9%
- viability, T/C (second compound 0.0316 µM, first compound 10 µM): 66.7%
- viability, T/C (second compound 0.1 µM, first compound 0.0316 µM): 106%
- viability, T/C (second compound 0.1 µM, first compound 0.1 µM): 91.4%
- viability, T/C (second compound 0.1 µM, first compound 0.316 µM): 80.8%
- viability, T/C (second compound 0.1 µM, first compound 1 µM): 76.6%
- viability, T/C (second compound 0.1 µM, first compound 3.16 µM): 73.4%
- viability, T/C (second compound 0.1 µM, first compound 10 µM): 70%
- viability, T/C (second compound 0.316 µM, first compound 0.0316 µM): 104%
- viability, T/C (second compound 0.316 µM, first compound 0.1 µM): 97.4%
- viability, T/C (second compound 0.316 µM, first compound 0.316 µM): 84.6%
- viability, T/C (second compound 0.316 µM, first compound 1 µM): 75.1%
- viability, T/C (second compound 0.316 µM, first compound 3.16 µM): 73.1%
- viability, T/C (second compound 0.316 µM, first compound 10 µM): 68.8%
- viability, T/C (second compound 1 µM, first compound 0.0316 µM): 97.5%
- viability, T/C (second compound 1 µM, first compound 0.1 µM): 94.4%
- viability, T/C (second compound 1 µM, first compound 0.316 µM): 84.3%
- viability, T/C (second compound 1 µM, first compound 1 µM): 73.7%
- viability, T/C (second compound 1 µM, first compound 3.16 µM): 76.7%
- viability, T/C (second compound 1 µM, first compound 10 µM): 71%
- viability, T/C (second compound 3.16 µM, first compound 0.0316 µM): 93.1%
- viability, T/C (second compound 3.16 µM, first compound 0.1 µM): 94%
- viability, T/C (second compound 3.16 µM, first compound 0.316 µM): 84.5%
- viability, T/C (second compound 3.16 µM, first compound 1 µM): 72%
- viability, T/C (second compound 3.16 µM, first compound 3.16 µM): 71%
- viability, T/C (second compound 3.16 µM, first compound 10 µM): 68%
- viability, T/C (second compound 10 µM, first compound 0.0316 µM): 91.8%
- viability, T/C (second compound 10 µM, first compound 0.1 µM): 83.3%
- viability, T/C (second compound 10 µM, first compound 0.316 µM): 78.7%
- viability, T/C (second compound 10 µM, first compound 1 µM): 70.8%
- viability, T/C (second compound 10 µM, first compound 3.16 µM): 71%
- viability, T/C (second compound 10 µM, first compound 10 µM): 64%

SMILES: CC(C)n1c(=O)n(C)c2cnc3cc(F)c(-c4ccc(OCCCN5CCCCC5)nc4)cc3c21
- viability, T/C (compound 3.16 µM): 116% and 127% and 102%
- IC50 (curve of compound): > 10 µM

SMILES: CC1COCCN1c1cc(C2(O)CC3CCC(C2)O3)c2cnn(-c3ccn[nH]3)c2n1 (configuration not stated)
- viability, T/C (compound 0.0316 µM): 92.2% and 97.5% and 97.8%
- viability, T/C (compound 0.1 µM): 82.7% and 81.3% and 85.3%
- viability, T/C (compound 0.316 µM): 70.9% and 70.1% and 75.3%
- viability, T/C (compound 1 µM): 61.7% and 59.7% and 72.1%
- viability, T/C (compound 3.16 µM): 47.5% and 49% and 59.7%
- viability, T/C (compound 10 µM): 46.5% and 47% and 53.5%
- IC50 (curve of compound): 3.48 µM and 4.1 µM and > 10 µM

SMILES: CC[C@@]1(O)C(=O)OCc2c1cc1n(c2=O)Cc2cc3c(CN(C)C)c(O)ccc3nc2-1
- viability, T/C (compound 0.000316 µM): 102% and 87.1% and 100%
- viability, T/C (compound 0.001 µM): 101% and 94.2% and 99%
- viability, T/C (compound 0.00316 µM): 100% and 111% and 96.2%
- viability, T/C (compound 0.01 µM): 92.8% and 100% and 106%
- viability, T/C (compound 0.0316 µM): 95.1% and 96.1% and 93.2%
- viability, T/C (compound 0.1 µM): 88.2% and 77.2% and 75.9%
- IC50 (curve of compound): > 0.1 µM

SMILES: CC1COCCN1c1cc(-c2ccnn2C)c2ccnc(-c3ccn[nH]3)c2n1 (configuration not stated)
- viability, T/C (compound 0.0316 µM): 97.4% and 94.7% and 96.7%
- viability, T/C (compound 0.1 µM): 69.8% and 71.2% and 83.1%
- viability, T/C (compound 0.316 µM): 51.1% and 45.3% and 54.1%
- viability, T/C (compound 1 µM): 46.9% and 43.4% and 49.2%
- viability, T/C (compound 10 µM): 43.8% and 39.4% and 49.2%

SMILES: C#Cc1c(F)ccc2cc(O)cc(-c3ncc4c(N5CC6CCC(C5)N6)nc(OCC56CCCN5CC(F)C6)nc4c3F)c12 (configuration not stated)
- viability, T/C (compound 0.0316 µM): 98.3% and 86.1% and 91.5%
- viability, T/C (compound 0.1 µM): 87.7% and 85.2% and 81.3%
- viability, T/C (compound 0.316 µM): 72.3% and 64.9% and 72.9%
- viability, T/C (compound 1 µM): 66.5% and 68.4% and 70.6%
- viability, T/C (compound 3.16 µM): 59.8% and 69.2% and 61.3%
- viability, T/C (compound 10 µM): 53% and 67.8% and 51%
- IC50 (curve of compound): > 10 µM

SMILES: CC1COCCN1c1cc(C2(S(C)(=N)=O)CC2)nc(-c2ccnc3[nH]ccc23)n1 (configuration not stated)
- viability, T/C (compound 0.0316 µM): 100% and 99.8% and 96.6%
- viability, T/C (compound 0.1 µM): 98.7% and 94.7% and 99.4%
- viability, T/C (compound 0.316 µM): 95.2% and 91.3% and 98.8%
- viability, T/C (compound 1 µM): 96% and 88% and 91.1%
- viability, T/C (compound 3.16 µM): 94.9% and 97.8% and 85.5%
- viability, T/C (compound 10 µM): 67.7% and 75.1% and 68.6%
- IC50 (curve of compound): > 10 µM
